Laboratory results published in patent US12728120B2, “Prevention or treatment of brain disease and adverse effects of cholinesterase inhibitors” (DR. NOAH BIOTECH INC., priority 2021, dated 2026).

Experiments:
neuronal cells (SH-SY5Y) = test: ROS production (DCF-DA) in H2O2-treated SH-SY5Y cells; assay type: cell-based; conditions: 100 μM H2O2 24 hours, DONE alone 5 uM, NAC alone 5 uM, NDC = DONE 2.5 uM + NAC 2.5 uM, FIG. 3
Protocol: SH-SY5Y cells were plated in 96 well plates at 2×10^5 cells/well in DMEM supplemented with 10% fetal bovine serum (FBS; YOUNG IN, US-FBS-500) and 1% penicillin-streptomycin (P-S; Gibco, 15070063). Six hours after seeding, SH-SY5Y cells were treated with 100 μM H2O2 for 24 hours (Sigma, #323381) followed by incubation with DONE alone, NAC alone, and combination of DONE and NAC. After incubation, ROS activity in the cell was measured by adding DCF-DA (Thermo, #D399) containing media. Absorbance was measured using a Synergy HTX Multi-Mode reader (Biotek) with 465 nm excitation and 540 nm emission. Measured fluorescence was normalized to control as follows: (drug-treated group OD−DCF-DA alone O.D)/(control O.D−DCF alone O.D)*100.

pCREB = pCREB expression (western blot) in primary cultured neurons; assay type: cell-based, mice; conditions: mouse primary neuro-glia culture, 4 days treatment, β-actin normalized; FIG. 14C
Protocol: (§1) To evaluate the synaptic plasticity, primary neuro-glia culture was prepared from cortices of embryonic day 16 C57/BL6 mice. Cells were collected by mechanical dissection and chemical dissociation with trypsin and DNase treatment and cultured in Neurobasal (NB) and MEM media supplemented with 1% B-27, 2 mM L-glutamine, 5% Fetal Bovine Serum, 5% Horse Serum, 1×MEM-NEAA (non-essential amino acids), and 1% Penicillin-Streptomycin (PS). Cells were cultured in Poly-D-Lysine+Laminin-coated 6-well plates at 2×10^6 cells/well in growth media. After 3 days in vitro (DIV 3), media was changed to NB media supplemented with 2% B-27, 2 mM L-glutamine, and 1% PS. […] Protein was resolved by 8% SDS-PAGE electrophoresis, transferred to polyvinylidene difluoride membranes and blocked with 5% non-fat dry milk for 1 hour at RT. Membrane was immunoblotted using following antibodies; primary antibody: PSD-95 (Abcam, ab18258, 1:2,000), phospho-CREB (Millipore, #06-519, 1:2,000), β-actin (Cell signaling, #3700, 1:3,000), and secondary antibody:HRP-conjugated anti-mouse IgG (AbFrontier, LF-SA8001, 1:5,000), HRP-conjugated anti-rabbit IgG (AbFrontier, LF-SA8002, 1:5,000). Signal was visualized by chemiluminescence methods using ECL solution and imaged using ImageQuant LAS 500 system. […]

PSD-95 = PSD-95 expression (western blot) in primary cultured neurons; assay type: cell-based, mice; conditions: mouse primary neuro-glia culture, 4 days treatment, β-actin normalized; FIG. 14B
Protocol: as §1

[1] = system: cerebral infarction-reperfusion model in Sprague-Dawley rats; test: Rotarod test in MCAO-reperfusion stroke model; assay type: in vivo; conditions: for Rotarod score (fall latency normalized to day 1), mean value: I.V. daily, FIG. 15
Protocol: The Rotarod test was performed on the 1, 3, 7, 14, and 21 days after 45 minutes-MCAO (middle cerebral artery occlusion)-reperfusion modelling to induced ischemia (Brain Stroke). […] The animal was carefully placed on a rotating rod (JD-A-07RA5, BS Technolab Inc., Korea) and the time (second) that animal was fallen was measured. The speed of rotating rod was increased from 4 rpm to 40 rpm for 300 second. […] For rotarod latency test, Nested one-way ANOVA and Two-way ANOVA was used to analyze significance between the groups on each day. Statistical analysis was performed using Prism 9 (GraphPad Software Inc., San Diego, CA, USA) and statistical significance was set at a P-value of less than 0.05.

IL-6 = IL-6 ELISA in LPS-treated BV2 microglial cells; assay type: cell-based, mouse; conditions: BV2, 1 μg/ml LPS, 18 hours; FIG. 4
Protocol: Briefly, BV2 microglial cells were plated in 96-well plates at 2×10^5 cells/well in DMEM high glucose medium (Welgene, LM001-05) supplemented with 10% fetal bovine serum (FBS; YOUNG IN, US-FBS-500) and 1% penicillin-streptomycin (P-S; Gibco, 15070063).

CC(=O)N[C@@H](CS)C(=O)O [NAC, N-acetylcysteine]
ROS, mean value normalized to control (CTL 100%) (neuronal cells (SH-SY5Y)): 88.93%
pCREB expression, mean value normalized to untreated control (CTL 1.0) (pCREB): 1.13
PSD-95 expression, mean value normalized to untreated control (CTL 1.0) (PSD-95): 1.43
Rotarod score normalized to VEH (100%) ([1]; day 3 after MCAO): 139.30%
Rotarod score (fall latency normalized to day 1), mean value ([1]; day 3 after MCAO): 23.39
Rotarod score (fall latency normalized to day 1), mean value ([1]; day 7 after MCAO): 38.01
Rotarod score normalized to VEH (100%) ([1]; day 14 after MCAO): 83.86%
Rotarod score (fall latency normalized to day 1), mean value ([1]; day 14 after MCAO): 40.65
Rotarod score normalized to VEH (100%) ([1]; day 21 after MCAO): 44.96%
Rotarod score (fall latency normalized to day 1), mean value ([1]; day 21 after MCAO): 28.67
IL-6, mean value relative to LPS (100%) (IL-6): 95.48%
